Like-named read-outs stand apart in the source and are kept apart here.
What was measured:
Test in all cases: MIC / checkerboard with ATM
Type in all cases: cell-based, P. aeruginosa
[1] = tested on: PA-044, blaNDM; conditions: Pseudomonas aeruginosa, read-out: MIC of ATM with 5, PA-044
[2] = tested on: PA-030, blaIMP; conditions: for MIC: Pseudomonas aeruginosa, read-out: MIC of ATM with 5, PA-030
[3] = tested on: PA-039, blaNDM; conditions: for MIC: Pseudomonas aeruginosa, read-out: MIC of ATM with 5, PA-039
[4] = tested on: PA-009, blaGES; conditions: for MIC: Pseudomonas aeruginosa, read-out: MIC of ATM with 5, PA-009
[5] = tested on: PA-037, blaIMP/NDM; conditions: for MIC: Pseudomonas aeruginosa, read-out: MIC of ATM with 5, PA-037
[6] = tested on: PA-038, blaNDM; conditions: for MIC: Pseudomonas aeruginosa, read-out: MIC of ATM with 5, PA-038
[7] = tested on: PA-035, blaGES; conditions: for MIC: Pseudomonas aeruginosa, read-out: MIC of ATM with 5, PA-035
[8] = tested on: PA-029, blaIMP; conditions: for MIC: Pseudomonas aeruginosa, read-out: MIC of ATM with 5, PA-029
[9] = tested on: PA-036, blaNDM; conditions: for MIC: Pseudomonas aeruginosa, read-out: MIC of ATM with 5, PA-036

CC(C)(C)CCOc1c(-c2ccc(F)c(F)c2)oc2cc(OCC(=O)O)cc(O)c2c1=O [Compound 5, 2-((2-(3,4-Difluorophenyl)-3-(3,3-dimethylbutoxy)-5-hydroxy-4-oxo-4H-chromen-7-yl)oxy)acetic Acid]
16/4: Concentrations of ATM and 5 at lowest FICI (ATM/5) ([2]; PA-030)
16 mg/L: Minimum concentration of 5 to make sensitive to ATM ([2]; PA-030) | Minimum concentration of 5 to make sensitive to ATM ([8]; PA-029)
8 µg/mL: MIC ([1]; 5 at 4 mg/L) | MIC ([2]; 5 at 16 mg/L) | MIC ([2]; 5 at 32 mg/L) | MIC ([3]; 5 at 4 mg/L) | MIC ([4]; 5 at 8 mg/L) | MIC ([4]; 5 at 16 mg/L) | MIC ([6]; 5 at 4 mg/L) | MIC ([7]; 5 at 1 mg/L) | MIC ([8]; 5 at 16 mg/L) | MIC ([8]; 5 at 32 mg/L) | MIC ([8]; 5 at 64 mg/L) | MIC ([9]; 5 at 4 mg/L)
0.26: Lowest FICI (ATM/5) ([2]; PA-030)
S (S (sensitive, MIC ≤ 8 mg/L)): Susceptibility to ATM ([2]; PA-030, ATM/5) | Susceptibility to ATM ([3]; PA-039, ATM/5) | Susceptibility to ATM ([4]; PA-009, ATM/5) | Susceptibility to ATM ([5]; PA-037, ATM/5) | Susceptibility to ATM ([6]; PA-038, ATM/5) | Susceptibility to ATM ([7]; PA-035, ATM/5) | Susceptibility to ATM ([8]; PA-029, ATM/5) | Susceptibility to ATM ([9]; PA-036, ATM/5)
2 µg/mL: MIC ([5]; 5 at 1 mg/L) | MIC ([5]; 5 at 2 mg/L) | MIC ([5]; 5 at 4 mg/L) | MIC ([7]; 5 at 8 mg/L) | MIC ([7]; 5 at 16 mg/L) | MIC ([7]; 5 at 32 mg/L) | MIC ([7]; 5 at 64 mg/L)
8 mg/L: Minimum concentration of 5 to make sensitive to ATM ([4]; PA-009)
4: FD (fold decrease in MIC of ATM with 5) ([2]; PA-030, lowest-FICI combination) | FD (fold decrease in MIC of ATM with 5) ([3]; PA-039, lowest-FICI combination) | FD (fold decrease in MIC of ATM with 5) ([4]; PA-009, lowest-FICI combination) | FD (fold decrease in MIC of ATM with 5) ([5]; PA-037, lowest-FICI combination) | FD (fold decrease in MIC of ATM with 5) ([6]; PA-038, lowest-FICI combination) | FD (fold decrease in MIC of ATM with 5) ([7]; PA-035, lowest-FICI combination) | FD (fold decrease in MIC of ATM with 5) ([8]; PA-029, lowest-FICI combination) | FD (fold decrease in MIC of ATM with 5) ([9]; PA-036, lowest-FICI combination)
4 µg/mL: MIC ([1]; 5 at 8 mg/L) | MIC ([1]; 5 at 16 mg/L) | MIC ([1]; 5 at 32 mg/L) | MIC ([1]; 5 at 64 mg/L) | MIC ([2]; 5 at 64 mg/L) | MIC ([3]; 5 at 8 mg/L) | MIC ([3]; 5 at 16 mg/L) | MIC ([3]; 5 at 32 mg/L) | MIC ([3]; 5 at 64 mg/L) | MIC ([4]; 5 at 32 mg/L) | MIC ([4]; 5 at 64 mg/L) | MIC ([6]; 5 at 8 mg/L) | MIC ([6]; 5 at 16 mg/L) | MIC ([6]; 5 at 32 mg/L) | MIC ([6]; 5 at 64 mg/L) | MIC ([7]; 5 at 2 mg/L) | MIC ([7]; 5 at 4 mg/L) | MIC ([9]; 5 at 8 mg/L) | MIC ([9]; 5 at 16 mg/L) | MIC ([9]; 5 at 32 mg/L) | MIC ([9]; 5 at 64 mg/L)
0.27: Lowest FICI (ATM/5) ([3]; PA-039) | Lowest FICI (ATM/5) ([5]; PA-037) | Lowest FICI (ATM/5) ([6]; PA-038) | Lowest FICI (ATM/5) ([7]; PA-035) | Lowest FICI (ATM/5) ([9]; PA-036)
4/8: Concentrations of ATM and 5 at lowest FICI (ATM/5) ([3]; PA-039) | Concentrations of ATM and 5 at lowest FICI (ATM/5) ([6]; PA-038) | Concentrations of ATM and 5 at lowest FICI (ATM/5) ([9]; PA-036)
16 µg/mL: MIC ([2]; 5 at 4 mg/L) | MIC ([2]; 5 at 8 mg/L) | MIC ([3]; 5 at 1 mg/L) | MIC ([3]; 5 at 2 mg/L) | MIC ([4]; 5 at 2 mg/L) | MIC ([4]; 5 at 4 mg/L) | MIC ([6]; 5 at 1 mg/L) | MIC ([6]; 5 at 2 mg/L) | MIC ([8]; 5 at 4 mg/L) | MIC ([8]; 5 at 8 mg/L) | MIC ([9]; 5 at 1 mg/L) | MIC ([9]; 5 at 2 mg/L)
8/16: Concentrations of ATM and 5 at lowest FICI (ATM/5) ([8]; PA-029)
1 µg/mL: MIC ([5]; 5 at 8 mg/L) | MIC ([5]; 5 at 16 mg/L) | MIC ([5]; 5 at 32 mg/L) | MIC ([5]; 5 at 64 mg/L)
0.28: Lowest FICI (ATM/5) ([4]; PA-009) | Lowest FICI (ATM/5) ([8]; PA-029)
4 mg/L: Minimum concentration of 5 to make sensitive to ATM ([3]; PA-039) | Minimum concentration of 5 to make sensitive to ATM ([6]; PA-038) | Minimum concentration of 5 to make sensitive to ATM ([9]; PA-036)
8/8: Concentrations of ATM and 5 at lowest FICI (ATM/5) ([4]; PA-009)
32 µg/mL: MIC ([2]; 5 at 1 mg/L) | MIC ([2]; 5 at 2 mg/L) | MIC ([4]; 5 at 1 mg/L) | MIC ([8]; 5 at 1 mg/L) | MIC ([8]; 5 at 2 mg/L)
1/8: Concentrations of ATM and 5 at lowest FICI (ATM/5) ([5]; PA-037)
S (S (Synergy, FICI ≤ 0.5)): Activity (FICI class) ([2]; PA-030) | Activity (FICI class) ([3]; PA-039) | Activity (FICI class) ([4]; PA-009) | Activity (FICI class) ([5]; PA-037) | Activity (FICI class) ([6]; PA-038) | Activity (FICI class) ([7]; PA-035) | Activity (FICI class) ([8]; PA-029) | Activity (FICI class) ([9]; PA-036)
2/8: Concentrations of ATM and 5 at lowest FICI (ATM/5) ([7]; PA-035)
